Earlier results in PubChem BioAssay AID1259409 (Chemical Carcinogenesis Research Information System (CCRIS), 2018).

Test system: rodent chemically induced tumor inhibition, incidence and multiplicity
Assay: CCRIS tumor inhibitor studies
Conditions: Route [Inhibitor]: ORAL, Promoter: NONE USED

CC1=C(/C=C/C(C)=C/C=C/C(C)=C/C(=O)NCCO)C(C)(C)CCC1
tumour outcome (control, treated, inhibition, significance) (Carcinogen: N-NITROSOBIS(2-OXYPROPYL)AMINE, 60599-38-4, Dose [Inhibitor]: 0.05, 0.1 OR 0.2 MILLIMOLAR/KG DIET FOR 32 WK STARTING 1 WK AFTER THE CARCINOGEN DOSE (STUDY DURATION: 33 WK), Species: HAMSTER, Strain/Sex: SYRIAN/FEMALE, Target Tissue: Type of Lesion: COMMON DUCT: ADENOMA, Dose [Carcinogen]: 40 MG/KG ONCE): 4/10 (40%), 19/29 (66%), -65%, not significant
tumour outcome (control, treated, inhibition, significance) (Carcinogen: N-NITROSOBIS(2-OXYPROPYL)AMINE, 60599-38-4, Dose [Inhibitor]: 0.05, 0.1 OR 0.2 MILLIMOLAR/KG DIET FOR 32 WK STARTING 1 WK AFTER THE CARCINOGEN DOSE (STUDY DURATION: 33 WK), Species: HAMSTER, Strain/Sex: SYRIAN/FEMALE, Target Tissue: Type of Lesion: GALL BLADDER: ADENOMA, Dose [Carcinogen]: 40 MG/KG ONCE): 6/10 (60%), 17/29 (59%), 2%, not significant
tumour outcome (control, treated, inhibition, significance) (Carcinogen: N-NITROSOBIS(2-OXYPROPYL)AMINE, 60599-38-4, Dose [Inhibitor]: 0.05, 0.1 OR 0.2 MILLIMOLAR/KG DIET FOR 32 WK STARTING 1 WK AFTER THE CARCINOGEN DOSE (STUDY DURATION: 33 WK), Species: HAMSTER, Strain/Sex: SYRIAN/FEMALE, Target Tissue: Type of Lesion: LUNG: ADENOMA, Dose [Carcinogen]: 40 MG/KG ONCE): 3/10 (30%), 4/29 (14%), 53%, p<0.025
tumour outcome (control, treated, inhibition, significance) (Carcinogen: N-NITROSOBIS(2-OXYPROPYL)AMINE, 60599-38-4, Dose [Inhibitor]: 0.05, 0.1 OR 0.2 MILLIMOLAR/KG DIET FOR 32 WK STARTING 1 WK AFTER THE CARCINOGEN DOSE (STUDY DURATION: 33 WK), Species: HAMSTER, Strain/Sex: SYRIAN/FEMALE, Target Tissue: Type of Lesion: PANCREAS: ADENOMA, Dose [Carcinogen]: 40 MG/KG ONCE): 10/10 (100%), 29/29 (100%), 0%, not significant
tumour outcome (control, treated, inhibition, significance) (Carcinogen: N-NITROSOBIS(2-OXYPROPYL)AMINE, 60599-38-4, Dose [Inhibitor]: 0.05, 0.1 OR 0.2 MILLIMOLAR/KG DIET FOR 32 WK STARTING 1 WK AFTER THE CARCINOGEN DOSE (STUDY DURATION: 33 WK), Species: HAMSTER, Strain/Sex: SYRIAN/FEMALE, Target Tissue: Type of Lesion: PANCREAS: CARCINOMA, Dose [Carcinogen]: 40 MG/KG ONCE): 4/10 (40%), 15/29 (52%), -30%, not significant
tumour outcome (control, treated, inhibition, significance) (Carcinogen: N-NITROSOBIS(2-OXYPROPYL)AMINE, 60599-38-4, Dose [Inhibitor]: 0.05, 0.1 OR 0.2 MILLIMOLAR/KG DIET FOR 32 WK STARTING 1 WK AFTER THE CARCINOGEN DOSE (STUDY DURATION: 33 WK), Species: HAMSTER, Strain/Sex: SYRIAN/MALE, Target Tissue: Type of Lesion: COMMON DUCT: ADENOMA, Dose [Carcinogen]: 40 MG/KG ONCE): 4/12 (33%), 23/29 (79%), -139%, not significant
tumour outcome (control, treated, inhibition, significance) (Carcinogen: N-NITROSOBIS(2-OXYPROPYL)AMINE, 60599-38-4, Dose [Inhibitor]: 0.05, 0.1 OR 0.2 MILLIMOLAR/KG DIET FOR 32 WK STARTING 1 WK AFTER THE CARCINOGEN DOSE (STUDY DURATION: 33 WK), Species: HAMSTER, Strain/Sex: SYRIAN/MALE, Target Tissue: Type of Lesion: GALL BLADDER: ADENOMA, Dose [Carcinogen]: 40 MG/KG ONCE): 3/12 (25%), 17/29 (59%), -136%, not significant
tumour outcome (control, treated, inhibition, significance) (Carcinogen: N-NITROSOBIS(2-OXYPROPYL)AMINE, 60599-38-4, Dose [Inhibitor]: 0.05, 0.1 OR 0.2 MILLIMOLAR/KG DIET FOR 32 WK STARTING 1 WK AFTER THE CARCINOGEN DOSE (STUDY DURATION: 33 WK), Species: HAMSTER, Strain/Sex: SYRIAN/MALE, Target Tissue: Type of Lesion: LIVER: ADENOMA, Dose [Carcinogen]: 40 MG/KG ONCE): 6/12 (50%), 8/29 (28%), 44%, not significant
tumour outcome (control, treated, inhibition, significance) (Carcinogen: N-NITROSOBIS(2-OXYPROPYL)AMINE, 60599-38-4, Dose [Inhibitor]: 0.05, 0.1 OR 0.2 MILLIMOLAR/KG DIET FOR 32 WK STARTING 1 WK AFTER THE CARCINOGEN DOSE (STUDY DURATION: 33 WK), Species: HAMSTER, Strain/Sex: SYRIAN/MALE, Target Tissue: Type of Lesion: LUNG: ADENOMA, Dose [Carcinogen]: 40 MG/KG ONCE): 1/12 (8%), 5/29 (17%), -113%, not significant
tumour outcome (control, treated, inhibition, significance) (Carcinogen: N-NITROSOBIS(2-OXYPROPYL)AMINE, 60599-38-4, Dose [Inhibitor]: 0.05, 0.1 OR 0.2 MILLIMOLAR/KG DIET FOR 32 WK STARTING 1 WK AFTER THE CARCINOGEN DOSE (STUDY DURATION: 33 WK), Species: HAMSTER, Strain/Sex: SYRIAN/MALE, Target Tissue: Type of Lesion: PANCREAS: ADENOMA, Dose [Carcinogen]: 40 MG/KG ONCE): 12/12 (100%), 29/29 (100%), 0%, not significant
tumour outcome (control, treated, inhibition, significance) (Carcinogen: N-NITROSOBIS(2-OXYPROPYL)AMINE, 60599-38-4, Dose [Inhibitor]: 0.05, 0.1 OR 0.2 MILLIMOLAR/KG DIET FOR 32 WK STARTING 1 WK AFTER THE CARCINOGEN DOSE (STUDY DURATION: 33 WK), Species: HAMSTER, Strain/Sex: SYRIAN/MALE, Target Tissue: Type of Lesion: PANCREAS: CARCINOMA, Dose [Carcinogen]: 40 MG/KG ONCE): 6/12 (50%), 10/29 (34%), 32%, not significant
tumour outcome (control, treated, inhibition, significance) (Carcinogen: N-NITROSOBIS(2-OXYPROPYL)AMINE, 60599-38-4, Dose [Inhibitor]: 0.05, 0.1 OR 0.2 MM/KG DIET FOR 32 WK STARTING 1 WK AFTER THE CARCINOGEN DOSE (STUDY DURATION: 33 WK), Species: HAMSTER, Strain/Sex: SYRIAN/FEMALE, Target Tissue: Type of Lesion: PANCREAS: ADENOCARCINOMA, Dose [Carcinogen]: 40 MG/KG, ONCE, ONE WK PRIOR TO START OF AGENT TREATMENT): 2/10 (20%), 2/29 (7%), 65%, not significant
tumour outcome (control, treated, inhibition, significance) (Carcinogen: N-NITROSOBIS(2-OXYPROPYL)AMINE, 60599-38-4, Dose [Inhibitor]: 0.05, 0.1 OR 0.2 MM/KG DIET FOR 32 WK STARTING 1 WK AFTER THE CARCINOGEN DOSE (STUDY DURATION: 33 WK), Species: HAMSTER, Strain/Sex: SYRIAN/FEMALE, Target Tissue: Type of Lesion: PANCREAS: CARCINOMA IN SITU, Dose [Carcinogen]: 40 MG/KG, ONCE, ONE WK PRIOR TO START OF AGENT TREATMENT): 1/10 (10%), 11/29 (38%), -280%, not significant
tumour outcome (control, treated, inhibition, significance) (Carcinogen: N-NITROSOBIS(2-OXYPROPYL)AMINE, 60599-38-4, Dose [Inhibitor]: 0.05, 0.1 OR 0.2 MM/KG DIET FOR 32 WK STARTING 1 WK AFTER THE CARCINOGEN DOSE (STUDY DURATION: 33 WK), Species: HAMSTER, Strain/Sex: SYRIAN/FEMALE, Target Tissue: Type of Lesion: PANCREAS: INTRADUCTAL CARCINOMA, Dose [Carcinogen]: 40 MG/KG, ONCE, ONE WK PRIOR TO START OF AGENT TREATMENT): 2/10 (20%), 6/29 (21%), -5%, not significant
tumour outcome (control, treated, inhibition, significance) (Carcinogen: N-NITROSOBIS(2-OXYPROPYL)AMINE, 60599-38-4, Dose [Inhibitor]: 0.05, 0.1 OR 0.2 MM/KG DIET FOR 32 WK STARTING 1 WK AFTER THE CARCINOGEN DOSE (STUDY DURATION: 33 WK), Species: HAMSTER, Strain/Sex: SYRIAN/MALE, Target Tissue: Type of Lesion: PANCREAS: ADENOCARCINOMA, Dose [Carcinogen]: 40 MG/KG, ONCE, ONE WK PRIOR TO START OF AGENT TREATMENT): 1/12 (8%), 4/29 (14%), -75%, not significant
tumour outcome (control, treated, inhibition, significance) (Carcinogen: N-NITROSOBIS(2-OXYPROPYL)AMINE, 60599-38-4, Dose [Inhibitor]: 0.05, 0.1 OR 0.2 MM/KG DIET FOR 32 WK STARTING 1 WK AFTER THE CARCINOGEN DOSE (STUDY DURATION: 33 WK), Species: HAMSTER, Strain/Sex: SYRIAN/MALE, Target Tissue: Type of Lesion: PANCREAS: CARCINOMA IN SITU, Dose [Carcinogen]: 40 MG/KG, ONCE, ONE WK PRIOR TO START OF AGENT TREATMENT): 3/12 (25%), 5/29 (17%), 32%, not significant
tumour outcome (control, treated, inhibition, significance) (Carcinogen: N-NITROSOBIS(2-OXYPROPYL)AMINE, 60599-38-4, Dose [Inhibitor]: 0.05, 0.1 OR 0.2 MM/KG DIET FOR 32 WK STARTING 1 WK AFTER THE CARCINOGEN DOSE (STUDY DURATION: 33 WK), Species: HAMSTER, Strain/Sex: SYRIAN/MALE, Target Tissue: Type of Lesion: PANCREAS: INTRADUCTAL CARCINOMA, Dose [Carcinogen]: 40 MG/KG, ONCE, ONE WK PRIOR TO START OF AGENT TREATMENT): 2/12 (17%), 0/29 (0%), 100%, not significant
tumour outcome (control, treated, inhibition, significance) (Carcinogen: N-NITROSOBIS(2-OXYPROPYL)AMINE, 60599-38-4, Dose [Inhibitor]: 0.05, 0.1 OR 0.2 MM/KG DIET FOR 32 WK STARTING 1 WK AFTER THE CARCINOGEN DOSE (STUDY DURATION: 33 WK), Species: HAMSTER, Strain/Sex: SYRIAN/MALE, Target Tissue: Type of Lesion: PANCREAS: MICROCARCINOMA, Dose [Carcinogen]: 40 MG/KG, ONCE, ONE WK PRIOR TO START OF AGENT TREATMENT): 3/12 (25%), 4/29 (14%), 44%, not significant
tumour outcome (control, treated, inhibition, significance) (Carcinogen: NONE USED, Dose [Inhibitor]: 687 MG/KG DIET DAILY FOR 54 WK (STUDY DURATION: 54 WK), Species: RAT, Strain/Sex: ACI/SEGHAPBR/MALE, Target Tissue: Type of Lesion: ADRENAL GLAND: TUMOR): 15/43 (35%), 22/44 (50%), -43%, not significant
tumour outcome (control, treated, inhibition, significance) (Carcinogen: NONE USED, Dose [Inhibitor]: 687 MG/KG DIET DAILY FOR 54 WK (STUDY DURATION: 54 WK), Species: RAT, Strain/Sex: ACI/SEGHAPBR/MALE, Target Tissue: Type of Lesion: PANCREAS: ISLET CELL ADENOMA): 1/40 (3%), 8/44 (18%), -500%, p<0.05
tumour outcome (control, treated, inhibition, significance) (Carcinogen: NONE USED, Dose [Inhibitor]: 687 MG/KG DIET DAILY FOR 54 WK (STUDY DURATION: 54 WK), Species: RAT, Strain/Sex: ACI/SEGHAPBR/MALE, Target Tissue: Type of Lesion: PITUITARY GLAND: ADENOMA, CARCINOMA): 20/39 (51%), 19/41 (46%), 10%, not significant
tumour outcome (control, treated, inhibition, significance) (Carcinogen: NONE USED, Dose [Inhibitor]: 687 MG/KG DIET DAILY FOR 54 WK (STUDY DURATION: 54 WK), Species: RAT, Strain/Sex: ACI/SEGHAPBR/MALE, Target Tissue: Type of Lesion: PROSTATE GLAND: ADENOMA, CARCINOMA): 19/44 (43%), 12/43 (28%), 35%, not significant
tumour outcome (control, treated, inhibition, significance) (Carcinogen: NONE USED, Dose [Inhibitor]: 687 MG/KG DIET DAILY FOR 54 WK (STUDY DURATION: 54 WK), Species: RAT, Strain/Sex: ACI/SEGHAPBR/MALE, Target Tissue: Type of Lesion: SKIN: TUMOR): 12/45 (27%), 5/44 (11%), 59%, not significant
tumour outcome (control, treated, inhibition, significance) (Carcinogen: NONE USED, Dose [Inhibitor]: 687 MG/KG DIET DAILY FOR 54 WK (STUDY DURATION: 54 WK), Species: RAT, Strain/Sex: ACI/SEGHAPBR/MALE, Target Tissue: Type of Lesion: TESTES: INTERSTITIAL CELL TUMOR): 21/45 (47%), 27/44 (61%), -30%, not significant
